Data reported in patent publication US20230346961A1, “GLP-1 AND GIP RECEPTOR CO-AGONISTS” (Novo Nordisk A/S, priority 2020, published 2023).
Where two headings read alike, the source gives them in different places. Starred links: 1 amine or outer side, 2 acyl side, 3 side chain; linkers in the order of their positions; H or OH if unused. Non-standard residues stand in square brackets, D forms with d. Residues, ends and D or L forms follow the SMILES beside them. Groups on a side chain read outwards from the residue. *: point of attachment. C20 diacid = O=C(O)CCCCCCCCCCCCCCCCCCC(=O)*; γGlu = O=C(O)[C@H](CCC(=O)[*:2])N[*:1]; εLys = N[C@@H](CCCCN[*:1])C(=O)[*:2]; Trx = NC[C@H]1CC[C@H](C(=O)O)CC1; AEEA = NCCOCCOCC(=O)O; Aib = CC(C)(N)C(=O)O

Columns and labels:
[1] = target: human GLP-1 receptor (Homo sapiens, UniProt P43220); assay: cell-based; settings: hGLP-1R
[2] = target: human glucagon receptor (Homo sapiens, UniProt P47871); assay: cell-based
Protocol: The in vitro functional potency is the measure of target receptor activation in a whole cell assay.
In vitro functional potency was determined by measuring the response of the target receptor in a reporter gene assay in individual cell lines. […] When the respective receptor is activated, it results in the production of cAMP, which in turn results in expression of the luciferase protein. When assay incubation is completed, luciferase substrate (luciferin) is added resulting in the enzymatic conversion of luciferin to oxyluciferin and producing bioluminescence. The luminescence is measured as the readout for the assay.
The cells lines used in these assays were BHK cells with BHKTS13 as a parent cell line. The cell lines were derived from a clone containing the CRE luciferase element and were established by further transfection with the respective receptor to obtain the relevant cell line.
The cells were cultured at 37° C. with 5% CO2 in Cell Culture Medium. They were aliquoted and stored in liquid nitrogen. The cells were kept in continuous culture and were seeded out the day before each assay.
GLP-1R and GcgR Cell Culture Medium consisted of DMEM medium with 10% FBS, 500 μg/mL G418, and 300 μg/mL hygromycin. GIPR Cell Culture Medium consisted of DMEM medium with 10% FBS, 400 μg/mL G418, and 300 μg/mL hygromycin. Assay Buffer consisted of DMEM w/o phenol red, 10 mM Hepes, 1×Glutamax, 1% ovalbumin, and 0.1% Pluronic F-68 with the addition of HSA at twice the final assay concentration.
• 1) Cells were plated at 5000 cells/well and incubated overnight in the assay plate. • 2) Cells were washed once in DPBS. • 3) Stocks of the test compounds and reference compounds in concentrations ranging from 100-300 μM were diluted 1:150 in Assay Buffer. Compounds were then diluted 1:10 in column 1 of a 96 deep well dilution plate and then carried across the row creating a 3.5 fold, 12 point dilution curve. • 4) Assay Buffer (50 μl aliquot) with or without HSA was added to each well in the assay plate. • 5) A 50 μl aliquot of compound or blank was transferred from the dilution plate to the assay plate containing the Assay Buffer with or without HSA. • 6) The assay plate was incubated for 3 h in a 5% CO2 incubator at 37° C. 7) The cells were washed once with DPBS. • 8) A 100 μl aliquot of DPBS was added to each well of the assay plate. • 9) A 100 μl aliquot of steadylite plus reagent (light sensitive) was added to each well of the assay plate. • 10) Each assay plate was covered with aluminum foil to protect it from light and shaken at 250 RPM for 30 min at room temperature. • 11) Each assay plate was read in a microtiter plate reader.
The data from the microtiter plate reader was first regressed in an Excel in order to calculate the x-axis, log scale concentrations based on the individual test compound's stock concentration and the dilutions of the assay. […] The software performs a non-linear regression (log(agonist) vs response). A minimum of two replicates was measured for each sample. The reported values are averages of the replicates.

[3] = target: T1, mouse GIP receptor (Mus musculus, UniProt Q0P543); assay: cell-based
T1 sequence (Q0P543 19-460): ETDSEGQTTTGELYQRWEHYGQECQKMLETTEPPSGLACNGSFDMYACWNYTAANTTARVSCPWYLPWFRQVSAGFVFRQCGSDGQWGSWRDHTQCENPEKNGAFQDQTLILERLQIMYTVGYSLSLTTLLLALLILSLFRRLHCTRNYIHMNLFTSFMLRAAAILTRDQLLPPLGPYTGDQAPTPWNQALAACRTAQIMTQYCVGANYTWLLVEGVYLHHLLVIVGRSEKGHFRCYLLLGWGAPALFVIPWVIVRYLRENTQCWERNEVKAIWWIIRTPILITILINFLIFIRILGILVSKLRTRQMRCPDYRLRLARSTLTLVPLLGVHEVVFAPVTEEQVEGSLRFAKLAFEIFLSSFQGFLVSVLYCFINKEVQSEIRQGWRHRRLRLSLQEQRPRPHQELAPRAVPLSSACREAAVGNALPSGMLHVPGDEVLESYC

[4] = Pharmacokinetic study in minipigs (terminal half-life after i.v. administration); type: in vivo; settings: female, Göttingen, minipig, iv
Protocol: The purpose of this example is to determine the half-life in vivo of the derivatives of the present invention after i.v. administration to minipigs, i.e. the prolongation of their time in the body and thereby their time of action. This is done in a pharmacokinetic (PK) study, where the terminal half-life of the derivative in question is determined. By terminal half-life is generally meant the period of time it takes to […] certain plasma concentration, measured after the initial distribution phase. Female Göttingen minipigs were obtained from Ellegaard Göttingen Minipigs (Dalmose, Denmark) approximately 7-14 months of age and weighing from approximately 16-35 kg were used in the studies. The minipigs were housed individually and fed restrictedly once daily with SDS minipig diet (Special Diets Services, Essex, UK). After at 3 weeks of acclimatisation two permanent central venous catheters were implanted in vena cava caudalis in each animal. The animals were allowed 1 week recovery after the surgery, and were then used for repeated pharmacokinetic studies with a suitable wash-out period between successive derivative dosing. The animals were fasted for approximately 18 hours before dosing and from 0 to 4 hours after dosing, but had adlibitum access to water during the whole period. […] Blood samples (for example 0.8 mL) were collected in 8 mM EDTA buffer and then centrifuged at 4° C. and 1942 g for 10 minutes. Plasma was pipetted into Micronic tubes on dry ice and kept at -20° C. until analysed for plasma concentration of the compounds using ELISA, or a similar antibody-based assay, or LCMS. […] (Pharsight Inc., Mountain View, CA, USA), and the resulting terminal half-lives (harmonic mean) determined.

[5] = target: T2, mouse GLP-1 receptor (Mus musculus, UniProt O35659)
T2 sequence (O35659 22-463): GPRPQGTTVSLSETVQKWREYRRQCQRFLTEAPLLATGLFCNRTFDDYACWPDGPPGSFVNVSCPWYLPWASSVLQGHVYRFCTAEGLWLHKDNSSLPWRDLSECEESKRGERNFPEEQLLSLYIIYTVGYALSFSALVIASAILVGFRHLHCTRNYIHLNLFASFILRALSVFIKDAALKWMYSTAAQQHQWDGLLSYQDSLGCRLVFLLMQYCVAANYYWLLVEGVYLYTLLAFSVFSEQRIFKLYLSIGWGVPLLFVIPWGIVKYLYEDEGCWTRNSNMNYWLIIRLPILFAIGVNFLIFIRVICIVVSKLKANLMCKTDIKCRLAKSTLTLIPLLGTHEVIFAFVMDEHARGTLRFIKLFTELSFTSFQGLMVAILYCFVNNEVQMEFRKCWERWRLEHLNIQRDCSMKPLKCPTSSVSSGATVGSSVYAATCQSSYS

[6] = plasma, minipigs, i.v. administration, harmonic mean, read-out: Terminal half-life t1/2 (converted)

Chain of human GLP-1 receptor (P43220 24-463): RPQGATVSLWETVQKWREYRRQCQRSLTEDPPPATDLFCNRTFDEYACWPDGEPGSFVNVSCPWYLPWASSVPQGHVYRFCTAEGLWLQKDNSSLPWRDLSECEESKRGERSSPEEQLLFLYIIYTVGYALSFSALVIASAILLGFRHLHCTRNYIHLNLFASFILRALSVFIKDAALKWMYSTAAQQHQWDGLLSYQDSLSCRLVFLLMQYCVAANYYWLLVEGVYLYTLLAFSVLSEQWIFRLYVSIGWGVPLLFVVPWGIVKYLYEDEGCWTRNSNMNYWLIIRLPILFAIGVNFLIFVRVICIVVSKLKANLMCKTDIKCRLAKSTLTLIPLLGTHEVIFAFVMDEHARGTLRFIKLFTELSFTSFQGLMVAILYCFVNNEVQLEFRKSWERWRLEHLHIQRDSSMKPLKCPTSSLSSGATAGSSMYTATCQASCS
Chain of human glucagon receptor (P47871 26-477): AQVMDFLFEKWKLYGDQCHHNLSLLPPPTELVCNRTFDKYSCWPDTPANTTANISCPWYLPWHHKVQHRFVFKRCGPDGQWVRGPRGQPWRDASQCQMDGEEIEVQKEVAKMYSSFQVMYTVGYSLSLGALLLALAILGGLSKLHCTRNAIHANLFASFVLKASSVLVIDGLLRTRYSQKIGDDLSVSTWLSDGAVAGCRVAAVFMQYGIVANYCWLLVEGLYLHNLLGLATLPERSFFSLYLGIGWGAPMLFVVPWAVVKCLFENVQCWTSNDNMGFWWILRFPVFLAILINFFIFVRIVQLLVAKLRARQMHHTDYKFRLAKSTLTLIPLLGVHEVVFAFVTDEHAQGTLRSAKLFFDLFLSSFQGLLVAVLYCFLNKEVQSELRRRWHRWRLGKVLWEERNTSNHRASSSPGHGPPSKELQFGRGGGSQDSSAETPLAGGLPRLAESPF

Compound | EC50 ([1]; CRE Luc 0% HSA EC50, 0% HSA) [nM] | EC50 ([1]; CRE Luc 1% HSA EC50, 1% HSA) [nM] | EC50 [2] [nM] | EC50 [3] [nM] | half-life [4, 6] [h] | EC50 [5] [nM] | half-life ([4]; in vivo) [h]
CC[C@H](C)[C@H](NC(=O)[C@H](CO)NC(=O)[C@H](Cc1ccc(O)cc1)NC(=O)[C@H](CC(=O)O)NC(=O)[C@H](CO)NC(=O)[C@@H](NC(=O)[C@H](Cc1ccccc1)NC(=O)[C@@H](NC(=O)CNC(=O)[C@H](CCC(=O)O)NC(=O)C(C)(C)NC(=O)[C@@H](N)Cc1ccc(O)cc1)[C@@H](C)O)[C@@H](C)O)C(=O)N[C@@H](Cc1ccc(O)cc1)C(=O)N[C@@H](CC(C)C)C(=O)N[C@@H](CCC(=O)O)C(=O)N[C@@H](CCCCNC(=O)[C@@H](N)CCCCNC(=O)[C@@H](N)CCCCNC(=O)CC[C@H](NC(=O)CCCCCCCCCCCCCCCCCCC(=O)O)C(=O)O)C(=O)N[C@@H](CCC(N)=O)C(=O)N[C@@H](C)C(=O)N[C@@H](C)C(=O)NC(C)(C)C(=O)N[C@@H](CCC(=O)O)C(=O)N[C@@H](Cc1ccccc1)C(=O)N[C@H](C(=O)N[C@@H](CC(N)=O)C(=O)N[C@@H](Cc1c[nH]c2ccccc12)C(=O)N[C@@H](CC(C)C)C(=O)N[C@@H](CC(C)C)C(=O)N[C@@H](C)C(=O)NCC(=O)NCC(=O)N1CCC[C@H]1C(=O)N[C@@H](CO)C(=O)N[C@@H](CO)C(=O)NCC(=O)N[C@@H](C)C(=O)N1CCC[C@H]1C(=O)N1CCC[C@H]1C(=O)N1CCC[C@H]1C(=O)N[C@@H](CO)C(N)=O)C(C)C [Compound 28] (H-Y[Aib]EGTFTSDYSIYLEK([εLys-εLys-γGlu-C20 diacid])QAA[Aib]EFVNWLLAGGPSSGAPPPS-NH2; N-terminus assumed) | 0.005 | 0.356 | > 10 | 0.026 | 111 | 0.0023 | –
CC[C@H](C)[C@H](NC(=O)[C@H](CO)NC(=O)[C@H](Cc1ccc(O)cc1)NC(=O)[C@H](CC(=O)O)NC(=O)[C@H](CO)NC(=O)[C@@H](NC(=O)[C@H](Cc1ccccc1)NC(=O)[C@@H](NC(=O)CNC(=O)[C@H](CCC(=O)O)NC(=O)C(C)(C)NC(=O)[C@@H](N)Cc1ccc(O)cc1)[C@@H](C)O)[C@@H](C)O)C(=O)N[C@@H](Cc1ccc(O)cc1)C(=O)N[C@@H](CC(C)C)C(=O)N[C@@H](CCC(=O)O)C(=O)N[C@@H](CCCCN)C(=O)N[C@@H](CCCCNC(=O)[C@@H](N)CCCCNC(=O)[C@@H](N)CCCCNC(=O)CC[C@H](NC(=O)CCCCCCCCCCCCCCCCCCC(=O)O)C(=O)O)C(=O)N[C@@H](C)C(=O)N[C@@H](C)C(=O)NC(C)(C)C(=O)N[C@@H](CCC(=O)O)C(=O)N[C@@H](Cc1ccccc1)C(=O)N[C@H](C(=O)N[C@@H](CCC(N)=O)C(=O)N[C@@H](Cc1c[nH]c2ccccc12)C(=O)N[C@@H](CC(C)C)C(=O)N[C@@H](CC(C)C)C(=O)N[C@@H](CCC(=O)O)C(=O)NCC(=O)NCC(=O)N1CCC[C@H]1C(=O)N[C@@H](CO)C(=O)N[C@@H](CO)C(=O)NCC(=O)N[C@@H](C)C(=O)N1CCC[C@H]1C(=O)N1CCC[C@H]1C(=O)N1CCC[C@H]1C(=O)N[C@@H](CO)C(N)=O)C(C)C [Compound 35] (H-Y[Aib]EGTFTSDYSIYLEKK([εLys-εLys-γGlu-C20 diacid])AA[Aib]EFVQWLLEGGPSSGAPPPS-NH2; N-terminus assumed) | 0.0022 | 0.169 | – | 0.0213 | 90 | 0.0013 | –
CC[C@H](C)[C@H](NC(=O)[C@H](CO)NC(=O)[C@H](Cc1ccc(O)cc1)NC(=O)[C@H](CC(=O)O)NC(=O)[C@H](CO)NC(=O)[C@@H](NC(=O)[C@H](Cc1ccccc1)NC(=O)[C@@H](NC(=O)CNC(=O)[C@H](CCC(=O)O)NC(=O)C(C)(C)NC(=O)[C@@H](N)Cc1ccc(O)cc1)[C@@H](C)O)[C@@H](C)O)C(=O)N[C@@H](Cc1ccc(O)cc1)C(=O)N[C@@H](CC(C)C)C(=O)N[C@@H](CCC(=O)O)C(=O)N[C@@H](CCC(=O)O)C(=O)N[C@@H](CCC(N)=O)C(=O)N[C@@H](C)C(=O)N[C@@H](C)C(=O)NC(C)(C)C(=O)N[C@@H](CCCCNC(=O)[C@@H](N)CCCCNC(=O)[C@@H](N)CCCCNC(=O)CC[C@H](NC(=O)CCCCCCCCCCCCCCCCCCC(=O)O)C(=O)O)C(=O)N[C@@H](Cc1ccccc1)C(=O)N[C@H](C(=O)N[C@@H](CC(N)=O)C(=O)N[C@@H](Cc1c[nH]c2ccccc12)C(=O)N[C@@H](CC(C)C)C(=O)N[C@@H](CC(C)C)C(=O)N[C@@H](C)C(=O)NCC(=O)NCC(=O)N1CCC[C@H]1C(=O)N[C@@H](CO)C(=O)N[C@@H](CO)C(=O)NCC(=O)N[C@@H](C)C(=O)N1CCC[C@H]1C(=O)N1CCC[C@H]1C(=O)N1CCC[C@H]1C(=O)N[C@@H](CO)C(N)=O)C(C)C [Compound 27] (H-Y[Aib]EGTFTSDYSIYLEEQAA[Aib]K([εLys-εLys-γGlu-C20 diacid])FVNWLLAGGPSSGAPPPS-NH2; N-terminus assumed) | 0.0033 | 0.195 | – | 0.545 | – | 0.0042 | 88
CC[C@H](C)[C@H](NC(=O)[C@H](CO)NC(=O)[C@H](Cc1ccc(O)cc1)NC(=O)[C@H](CC(=O)O)NC(=O)[C@H](CO)NC(=O)[C@@H](NC(=O)[C@H](Cc1ccccc1)NC(=O)[C@@H](NC(=O)CNC(=O)[C@H](CCC(=O)O)NC(=O)C(C)(C)NC(=O)[C@@H](N)Cc1ccc(O)cc1)[C@@H](C)O)[C@@H](C)O)C(=O)N[C@@H](Cc1ccc(O)cc1)C(=O)N[C@@H](CC(C)C)C(=O)N[C@@H](CCC(=O)O)C(=O)N[C@@H](CCCCN)C(=O)N[C@@H](CCC(N)=O)C(=O)N[C@@H](C)C(=O)N[C@@H](C)C(=O)NC(C)(C)C(=O)N[C@@H](CCCCNC(=O)COCCOCCNC(=O)COCCOCCNC(=O)CC[C@H](NC(=O)[C@H]1CC[C@H](CNC(=O)CCCCCCCCCCCCCCCCCCC(=O)O)CC1)C(=O)O)C(=O)N[C@@H](Cc1ccccc1)C(=O)N[C@H](C(=O)N[C@@H](CC(N)=O)C(=O)N[C@@H](Cc1c[nH]c2ccccc12)C(=O)N[C@@H](CC(C)C)C(=O)N[C@@H](CC(C)C)C(=O)N[C@@H](C)C(=O)NCC(=O)NCC(=O)N1CCC[C@H]1C(=O)N[C@@H](CO)C(=O)N[C@@H](CO)C(=O)NCC(=O)N[C@@H](C)C(=O)N1CCC[C@H]1C(=O)N1CCC[C@H]1C(=O)N1CCC[C@H]1C(=O)N[C@@H](CO)C(N)=O)C(C)C [Compound 17] (H-Y[Aib]EGTFTSDYSIYLEKQAA[Aib]K([AEEA-AEEA-γGlu-Trx-C20 diacid])FVNWLLAGGPSSGAPPPS-NH2; N-terminus assumed) | 0.0041 | 0.229 | > 10 | 0.0219 | – | 0.0023 | –
